The results in this text go back to patent publication US10167279B2 (NOVARTIS AG, priority 2014, dated 2019).

One assay addresses b-Raf (V600E) (Homo sapiens (Human), UniProt P15056, V600E). In words: In vitro Raf activity determination (Alpha Screen, phospho-MEK), b-Raf (V600E). It counts as biochemical. As to conditions: ATP 10 μM, 60 min pre-incubation, 3 hours reaction. From the text:
The activity of a compound according to the present invention can be assessed by well-known in vitro & in vivo methods. Raf inhibition data provided herein was obtained using the following procedures.
Sf9 cells co-expressing both proteins were lysed and subjected to immobilized nickel chromatography and eluted with Imidazole. A second column (StrepII binding column) was used and eluted with desthiobiotin. Protein Tags were removed using Prescission enzyme and the protein was further purified using a flowthrough step to remove tags.
Full length MEK1 with an inactivating K97R ATP binding site mutation is utilized as a RAF substrate. The MEK1 cDNA was subcloned with an N-terminal (his)6 tag into a vector for E. Coli expression. The MEK1 substrate was purified from E. Coli lysate by nickel affinity chromatography followed by anion exchange. The final MEK1 preparation was biotinylated (Pierce EZ-Link Sulfo-NHS-LC-Biotin) and concentrated.
The plate was incubated for 60 minutes at room temperature. […] The additions were carried out under dark conditions to protect the detection beads from light. A lid was placed on top of the plate and incubated for 1 hour at room temperature, after which the luminescence was read on a PerkinElmer Envision instrument.

Another assay concerns the target C-Raf FL (Homo sapiens (Human), UniProt P04049, Y340E/Y341E). The experiment in a line: In vitro Raf activity determination (Alpha Screen, phospho-MEK), C-Raf FL (full length, Y340E/Y341E). Type of assay: biochemical. As to conditions: ATP 1 μM; 60 min pre-incubation; 1 hour reaction; column head does not say FL or TR. The procedure, abridged:
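Sf9-expressed C-Raf incubated with biotinylated kinase-dead MEK1 (K97R) in 50 mM Tris pH 7.5, 15 mM MgCl2, 0.01% BSA, 1 mM DTT with compound, 60 min at room temperature. Phospho-MEK detected by anti-p-MEK AlphaScreen luminescence; IC50 by non-linear regression.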

The structures appear in SMILES notation. pIC50: −log10 of the molar value.

Chain of C-Raf FL (P04049 whole entry Y340E/Y341E): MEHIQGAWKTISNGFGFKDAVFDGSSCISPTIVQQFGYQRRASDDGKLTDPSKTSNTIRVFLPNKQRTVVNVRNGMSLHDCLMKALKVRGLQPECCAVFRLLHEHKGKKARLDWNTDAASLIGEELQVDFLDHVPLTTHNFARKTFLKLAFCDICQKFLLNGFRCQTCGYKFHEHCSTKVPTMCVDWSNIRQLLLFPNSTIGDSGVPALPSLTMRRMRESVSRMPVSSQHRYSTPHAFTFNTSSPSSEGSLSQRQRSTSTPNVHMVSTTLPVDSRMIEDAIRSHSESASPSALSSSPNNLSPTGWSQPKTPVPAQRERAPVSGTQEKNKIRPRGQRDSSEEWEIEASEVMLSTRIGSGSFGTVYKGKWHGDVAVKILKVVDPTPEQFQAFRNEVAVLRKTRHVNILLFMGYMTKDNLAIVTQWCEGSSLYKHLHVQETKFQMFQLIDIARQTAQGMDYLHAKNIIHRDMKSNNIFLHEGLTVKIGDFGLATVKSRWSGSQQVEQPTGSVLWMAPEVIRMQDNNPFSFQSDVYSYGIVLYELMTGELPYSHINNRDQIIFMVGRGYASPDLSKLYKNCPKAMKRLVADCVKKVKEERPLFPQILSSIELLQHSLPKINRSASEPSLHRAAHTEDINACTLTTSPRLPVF
Chain of C-Raf FL (P63104 whole entry partner): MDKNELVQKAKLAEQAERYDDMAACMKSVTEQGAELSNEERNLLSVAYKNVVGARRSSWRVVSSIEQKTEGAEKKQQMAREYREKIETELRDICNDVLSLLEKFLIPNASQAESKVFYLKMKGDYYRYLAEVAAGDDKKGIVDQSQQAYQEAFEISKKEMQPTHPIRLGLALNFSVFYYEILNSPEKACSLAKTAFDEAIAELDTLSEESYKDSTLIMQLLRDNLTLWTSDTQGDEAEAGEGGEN
Chain of b-Raf (V600E) (P15056 whole entry V600E): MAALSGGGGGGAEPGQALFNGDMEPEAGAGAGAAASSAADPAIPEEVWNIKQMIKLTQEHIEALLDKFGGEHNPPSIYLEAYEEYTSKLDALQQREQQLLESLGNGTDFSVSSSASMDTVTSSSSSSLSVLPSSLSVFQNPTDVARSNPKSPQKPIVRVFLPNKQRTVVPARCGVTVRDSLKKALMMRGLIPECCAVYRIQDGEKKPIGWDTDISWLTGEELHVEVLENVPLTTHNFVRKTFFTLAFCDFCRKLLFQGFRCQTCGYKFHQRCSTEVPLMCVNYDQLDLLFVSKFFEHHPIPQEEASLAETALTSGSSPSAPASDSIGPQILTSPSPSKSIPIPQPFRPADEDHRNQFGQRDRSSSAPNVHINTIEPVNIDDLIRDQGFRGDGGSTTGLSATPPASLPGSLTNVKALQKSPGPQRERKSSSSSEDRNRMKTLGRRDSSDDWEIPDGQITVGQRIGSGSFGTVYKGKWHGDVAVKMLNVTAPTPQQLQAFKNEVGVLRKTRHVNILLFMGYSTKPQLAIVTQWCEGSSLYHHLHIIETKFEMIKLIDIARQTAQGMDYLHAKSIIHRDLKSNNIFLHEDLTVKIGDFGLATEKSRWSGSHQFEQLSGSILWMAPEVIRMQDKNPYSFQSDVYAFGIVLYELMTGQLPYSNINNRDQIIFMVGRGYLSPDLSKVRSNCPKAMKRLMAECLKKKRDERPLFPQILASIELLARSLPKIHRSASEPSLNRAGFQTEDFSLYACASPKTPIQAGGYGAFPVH

Usually pIC50 stands for −log10 of the IC50, conventionally taken in molar units. A lower pIC50 goes with a high IC50. Turning to `COc1ncc(-c2cc(NC(=O)c3ccnc(C(C)(F)F)c3)cnc2C)cc1C1(O)COC1` [Example 77, 2-(1,1-difluoroethyl)-N-(5′-(3-hydroxyoxetan-3-yl)-6′-methoxy-2-methyl-[3,3′-bipyridin]-5-yl)isonicotinamide], the pIC50 against b-Raf (V600E) was 7.62; on C-Raf FL, 8.45.
In the same order, the values of `Cc1ccc(C(=O)Nc2cccc(C(F)(F)F)c2)cc1-c1cccc(C2(C)COC2)c1` [Example 26, 6-methyl-3′-(3-methyloxetan-3-yl)-N-(3-(trifluoromethyl)phenyl)-[1,1′-biphenyl]-3-carboxamide] are 8.64 and 9.43.
Taken in the same sequence, the figures for `COc1ncc(-c2cc(NC(=O)c3ccnc(C(C)(C)F)c3)ccc2C)cc1C1(CF)COC1` [Example 104, N-(3-(5-(3-(fluoromethyl)oxetan-3-yl)-6-methoxypyridin-3-yl)-4-methylphenyl)-2-(2-fluoropropan-2-yl)isonicotinamide] were 9.38 and 9.89.
In the same order, the values of `CCOc1nnc(-c2cc(NC(=O)c3cc(CN(C)C)cc(C(F)(F)F)c3)cnc2C)cc1C1(C)COC1` [Example 129, 3-((dimethylamino)methyl)-N-(5-(6-ethoxy-5-(3-methyloxetan-3-yl)pyridazin-3-yl)-6-methylpyridin-3-yl)-5-(trifluoromethyl)benzamide] are 7.63 and 8.45.
For the compound `COc1ncc(-c2cc(NC(=O)c3ccnc(C(F)F)c3)ccc2C)cc1C1(O)COC1` [Example 98, 2-(difluoromethyl)-N-(3-(5-(3-hydroxyoxetan-3-yl)-6-methoxypyridin-3-yl)-4-methylphenyl)isonicotin-amide], the pIC50 against b-Raf (V600E) is 7.88; against C-Raf FL, 8.96.
In the same order, the values of `Cc1ncc(NC(=O)c2cccc(C(F)(F)F)c2)cc1-c1cnc(OCCO)c(C2(O)COC2)c1` [Example 36, N-(6′-(2-hydroxyethoxy)-5′-(3-hydroxyoxetan-3-yl)-2-methyl-[3,3′-bipyridin]-5-yl)-3-(trifluoromethyl)benzamide] are 7.92 and 8.74.
For the compound `COc1ncc(-c2cc(NC(=O)c3cccc(C(F)(F)F)c3)cnc2C)cc1C1(O)COC1` [Example 97, N-(5′-(3-hydroxyoxetan-3-yl)-6′-methoxy-2-methyl-[3,3′-bipyridin]-5-yl)-3-(trifluoromethyl)benzamide], the results for the pIC50 against b-Raf (V600E) and against C-Raf FL were 7.98 and 8.85, respectively.
Regarding `CCOc1ncc(-c2cc(NC(=O)c3ccnc(C(C)(C)F)c3)ccc2C)cc1C1(O)COC1` [Example 122, N-(3-(6-ethoxy-5-(3-hydroxyoxetan-3-yl)pyridin-3-yl)-4-methylphenyl)-2-(2-fluoropropan-2-yl)isonicotinamide], the negative logarithm of the IC50 (pIC50) at b-Raf (V600E) is 8.75; against C-Raf FL, 9.49.
Taken in the same sequence, the figures for `COc1ncc(-c2cc(NC(=O)c3cc(C(F)(F)F)ccn3)cnc2C)cc1C1(O)COC1` [Example 78, N-(5′-(3-hydroxyoxetan-3-yl)-6′-methoxy-2-methyl-[3,3′-bipyridin]-5-yl)-4-(trifluoromethyl)picolin-amide] were 7.63 and 8.49.
In the same order, the values of `Cc1ccc(NC(=O)c2cccc(C(F)(F)F)c2)cc1-c1cccc(C2(C)COC2)c1` [Example 25, N-(6-methyl-3′-(3-methyloxetan-3-yl)-[1,1′-biphenyl]-3-yl)-3-(trifluoromethyl)benz-amide] are 9.06 and 9.81.
With `Cc1ccc(NC(=O)c2ccnc(C(C)(C)C#N)c2)cc1-c1cccc(C2(C)COC2)c1` [Example 27, 2-(2-cyanopropan-2-yl)-N-(6-methyl-3′-(3-methyloxetan-3-yl)-[1,1′-biphenyl]-3-yl)isonicotinamide], the pIC50 on b-Raf (V600E) was 5.92; against C-Raf FL it was 6.58.
Taken in the same sequence, the figures for `COc1ncc(-c2cc(NC(=O)c3ccnc(C4(C#N)CC4)c3)ccc2C)cc1C1(O)COC1` [Example 100] were 8.66 and 9.52.
In the same order, the values of `Cc1ncc(NC(=O)c2cccc(C(F)(F)F)c2)cc1-c1cc(C2(F)COC2)c(=O)n(CC(O)CO)c1` (stereo not shown) [Example 45, N-(1′-(2,3-dihydroxypropyl)-5′-(3-fluorooxetan-3-yl)-2-methyl-6′-oxo-1′,6′-dihydro-[3,3′-bipyridin]-5-yl)-3-(trifluoromethyl)benzamide] are 5.93 and 6.92.
As for `Cc1ncc(NC(=O)c2ccnc(C(C)(F)F)c2)cc1-c1cccc(C2(C)COC2)c1` [Example 68, 2-(1,1-difluoroethyl)-N-(6-methyl-5-(3-(3-methyloxetan-3-yl)phenyl)pyridin-3-yl)isonicotinamide], the pIC50 against b-Raf (V600E) is 8.43; on C-Raf FL, 9.21.
With `COc1ncc(-c2cc(NC(=O)c3ccnc(C(F)(F)F)c3)cnc2C)cc1C1(F)COC1` [Example 79, N-(5′-(3-fluorooxetan-3-yl)-6′-methoxy-2-methyl-[3,3′-bipyridin]-5-yl)-2-(trifluoromethyl)isonicotin-amide], the results for the pIC50 at b-Raf (V600E) and at C-Raf FL were 8.40 and 9.31, respectively.
On to `CCOc1ncc(-c2cc(NC(=O)c3ccnc(C(C)(C)C#N)c3)ccc2C)cc1C1(O)COC1` [Example 121, 2-(2-cyanopropan-2-yl)-N-(3-(6-ethoxy-5-(3-hydroxyoxetan-3-yl)pyridin-3-yl)-4-methylphenyl)isonicotin-amide], for which the results for the pIC50 against b-Raf (V600E) and on C-Raf FL were 8.31 and 9.01, respectively.
With `COc1ncc(-c2cc(NC(=O)c3cc(C(F)(F)F)ccn3)ccc2C)cc1C1(O)COC1` [Example 84, N-(3-(5-(3-hydroxyoxetan-3-yl)-6-methoxypyridin-3-yl)-4-methylphenyl)-4-(trifluoromethyl)picolin-amide], the figures for the pIC50 on b-Raf (V600E) and at C-Raf FL were 8.66 and 9.45, respectively.
Regarding `COc1ncc(-c2cc(NC(=O)c3cc(C(C)(C)N)cc(C(F)(F)F)c3)cnc2C)cc1C1(C(F)F)COC1` [Example 113, 3-(2-aminopropan-2-yl)-N-(5′-(3-(difluoromethyl)oxetan-3-yl)-6′-methoxy-2-methyl-[3,3′-bipyridin]-5-yl)-5-(trifluoromethyl)benzamide], the values for the pIC50 at b-Raf (V600E) and at C-Raf FL were 8.32 and 9.05, respectively.
For the compound `COc1ncc(-c2cc(NC(=O)c3ccnc(C(C)(C)F)c3)cnc2C)cc1C1(O)COC1` [Example 76, 2-(2-fluoropropan-2-yl)-N-(5′-(3-hydroxyoxetan-3-yl)-6′-methoxy-2-methyl-[3,3′-bipyridin]-5-yl)isonicotinamide], the pIC50 against b-Raf (V600E) was 7.64; against C-Raf FL, 8.41.
Taken in the same sequence, the figures for `COc1ncc(-c2cc(NC(=O)c3cc(C(C)(C)N)cc(C(F)(F)F)c3)ccc2C)cc1C1(O)COC1` [Example 101, 3-(2-aminopropan-2-yl)-N-(3-(5-(3-hydroxyoxetan-3-yl)-6-methoxypyridin-3-yl)-4-methylphenyl)-5-(trifluoromethyl)benzamide] were 8.19 and 8.84.
Taken in the same sequence, the figures for `COc1ncc(-c2cc(NC(=O)c3ccnc(C(C)(C)C#N)c3)ccc2C)cc1C1(C=O)COC1` [Example 43, 2-(2-cyanopropan-2-yl)-N-(3-(5-(3-formyloxetan-3-yl)-6-methoxypyridin-3-yl)-4-methylphenyl)isonicotin-amide] were 7.99 and 8.57.
Taken in the same sequence, the figures for `COc1ncc(-c2cc(NC(=O)c3cc(C(C)(C)N)cc(C(F)(F)F)c3)cnc2C)cc1C1(C#N)COC1` [Example 114, 3-(2-aminopropan-2-yl)-N-(5′-(3-cyanooxetan-3-yl)-6′-methoxy-2-methyl-[3,3′-bipyridin]-5-yl)-5-(trifluoromethyl)benzamide] were 7.76 and 8.49.
Turning to `Cc1ncc(NC(=O)c2ccnc(C(C)(C)C#N)c2)cc1-c1cnc(OC2CCOCC2)c(C2(O)COC2)c1` [Example 34, 2-(2-cyanopropan-2-yl)-N-(5′-(3-hydroxyoxetan-3-yl)-2-methyl-6′-((tetrahydro-2H-pyran-4-yl)oxy)-[3,3′-bipyridin]-5-yl)isonicotinamide], the pIC50 was 7.69 on b-Raf (V600E) and 8.12 against C-Raf FL.
As to `Cc1ncc(NC(=O)c2cccc(C(F)(F)F)c2)cc1-c1cnc(OC2CCOCC2)c(C2(O)COC2)c1` [Example 118, N-(5′-(3-hydroxyoxetan-3-yl)-2-methyl-6′-((tetrahydro-2H-pyran-4-yl)oxy)-[3,3′-bipyridin]-5-yl)-3-(trifluoromethyl)benzamide], the negative logarithm of the IC50 (pIC50) was 8.41 against b-Raf (V600E) and 9.25 on C-Raf FL.
In the same order, the values of `Cc1ncc(NC(=O)c2ccnc(C(C)(F)F)c2)cc1-c1cnc(OCCO)c(C2(F)COC2)c1` [Example 39, 7-(1,1-difluoroethyl)-N-(5′-(3-fluorooxetan-3-yl)-6′-(2-hydroxyethoxy)-2-methyl-[3,3′-bipyridin]-5-yl)isonotinamide] are 8.23 and 8.93.
As to `COc1ncc(-c2cc(NC(=O)c3cc(C(F)(F)F)ccn3)ccc2C)cc1C1(F)COC1` [Example 88, N-(3-(5-(3-fluorooxetan-3-yl)-6-methoxypyridin-3-yl)-4-methylphenyl)-4-(trifluoromethyl)picolin-amide], the pIC50 on b-Raf (V600E) was 9.03; against C-Raf FL it was 9.52.
